These are literature values, as cited in patent US4339582A (priority 1981, dated 1982).

The conditions of the series: literature, J. Med. Chem. 18, 1126-30 (1975).

As for `c1ccc(C2CCC3CCCCN3C2)cc1` (stereo not shown), the reported activity entry is recorded as “antidepressant activity”.
